Test [1] concerns anisomycin-induced psoriatic dermatitis. Nature of the test: Anisomycin-induced psoriatic dermatitis, topical treatment of murine ear. Details: species or system C57BL/6 mice. The conditions noted are these: mouse, in vivo. The source says: Psoriasis is a chronic inflammatory skin disease characterized by IL-17-mediated immune responses, and p38 is known to be highly activated in the psoriatic epidermis. In this example, a p38 activator, anisomycin, is applied daily to murine skin. The probenecid analogs of the present technology (e.g., BT032) are applied to murine psoriatic models topically or to human psoriatic skin specimens ex vivo. Mice. Eight- to 12-week old female mice are used in this study. All animals are of the C57BL/6 genetic background. Animals are maintained under specific pathogen-free conditions. Anisomycin treatment. Anisomycin solution (2 mg/mL in 99.5% ethanol) is applied to the inner and outer sides of a murine ear once daily at a dosage of 10 μL per side of the ear. Histological analyses. For histologic examination, ear skin samples are fixed with 10% formalin and embedded in paraffin. Sections along the median plane of the ear with a thickness of 5 μm are prepared and subjected to staining with hematoxylin and eosin (H&E). Images of two consecutive microscopic fields of H&E-stained sections are obtained using a digital microscope. Time course changes in ear thickness are measured. Thickness is measured daily before treatment.

Test [2] has as its system lesional skin from patients with psoriasis. The experiment in a line: Psoriasis-related gene expression in psoriatic lesion biopsy specimens ex vivo. Type of test: cell-based, human. The conditions noted are these: 500 ng/mL, 12 hours. Here is the method:
Human samples. Biopsy specimens of psoriatic lesions are obtained from about 10 patients after obtaining informed consent. Two adjacent biopsy specimens are taken from each patient. All specimens are cut at the upper dermis, and the epidermal side is used for the experiment. As a medium, HuMedia-KB2 (Kurabo) containing insulin, human epidermal growth factor, bovine pituitary extract, and gentamicin/amphotericin B is used, according to the manufacturer's protocol. One specimen is cultured with vehicle (DMSO), and the adjacent one was cultured with BT032 (500 ng/mL) for 12 hours.
RNA isolation and the quantitative RT-PCR analysis. Total RNA is isolated using Trizol (Invitrogen, Carlsbad, CA) or RNeasy kits (Qiagen, PL Venlo, Netherlands) according to the manufacturer's protocol. Complementary DNA is reverse transcribed using a Prime Script RT reagent kit (Takara Bio, Shiga, Japan). The quantitative RT-PCR is performed by monitoring the synthesis of double-stranded DNA during the various PCR cycles with SYBR Green I (Roche, Basel, Switzerland) and the LightCycler real-time PCR apparatus (Roche), according to the manufacturer's instructions. All primers are obtained from Greiner Japan (Tokyo, Japan).

In test [3] the test system is NLRP1-mediated inflammasome activity. The experiment in a line: IC50 curve, L18-MDP-induced IL-1β secretion in LPS-primed immortalized BMDMs. The class given is cell-based, murine. Particulars: L18-MDP 100 μg/mL; drug 3.9-350 μM; FIG. 4B; read-out: half maximal inhibitory concentration (IC50), NLRP1-mediated inflammasome activity. The procedure:
FIGS. 4A and 4B are charts showing inflammasome activity as determined by measuring secreted IL-1β concentrations in murine immortalized BMDMs pre-activated with lipopolysaccharide (LPS; 100 ng/mL) for 3 h. The macrophages were stimulated with either the NLRP3 activator, nigericin (3 μM) (FIG. 4A) or the NLRP1 agonist L18-MDP (100 μg/mL) (FIG. 4B) and treated or not with BT032 (3.9-350 μM). […] BT032 versus normalized responses (variable slope).

As to `CCCN(CCC)S(=O)(=O)c1ccc(-c2ccc(CCCC(=O)O)cc2)cc1` [BT032, 4-(4′-(N,N-dipropylsulfamoyl)-[1,1′-biphenyl]-4-yl)butanoic acid], the “ear thickness, scaly erythema, and histologic changes induced by anisomycin” value in test [1] is listed as “attenuated”. Further, the “expression levels of IL1B, IL6, IL23A, IL17A versus control specimens” value in test [2] is “lower expression levels”. Besides, in test [3], the IC50 stood at 30 µM.
